For assay [1], the system named is breast T-47D cancer cells. As to the kind of experiment: Cell cycle analysis by DNA flow cytometry. In kind it is cell-based, human. The following applies: 8a at GI50 concentration (0.41 µM), 24 h. In general terms: Flow cytometry measures light scatter and fluorescence of single cells or particles in a stream.
Experimental: were washed twice with ice-cold phosphate buffered saline (PBS). Subsequently, the treated cells were collected by centrifugation, fixed in ice-cold 70% (v/v) ethanol, washed with PBS, re-suspended with 100 μg/mL RNase, stained with 40 μg/mL PI, and analyzed by flow cytometry using FACS Calibur (Becton Dickinson, BD, Franklin Lakes, NJ, USA). The cell cycle distributions were calculated using CellQuest software 5.1 (Becton Dickinson).
A further assay concerns UO-31. As to the kind of experiment: cells. The settings on record: Homo sapiens.

As a reminder, the GI50 is the concentration giving 50% growth inhibition.

Some results are limits rather than exact numbers.

As for `CCCn1cc(C=NN=C2C(=O)Nc3ccc(C)cc32)c2ccccc21` [Compound 8a], the “cell population in sub-G1 phase” value in assay [1] (control 1.25%) was 17.73%. The compound also registered a G2/M phase fraction in assay [1] (control 19.19%) of 34.05%. In the assay on UO-31 (UO-31), the GI50 was determined as 2.28 µM. Besides, in the assay with UO-31 (UO-31, read-out: LC50), the CC50 was > 100 µM.

The values are drawn from publication PMC7717600, “Novel [(N-alkyl-3-indolylmethylene)hydrazono]oxindoles arrest cell cycle and induce cell apoptosis by inhibiting CDK2 and Bcl-2: synthesis, biological evaluation and in silico studies” (Journal of Enzyme Inhibition and Medicinal Chemistry, 2020).
